The values that follow come from patent publication US10183928B2, “Inhibitors of RET” (BLUEPRINT MEDICINES CORPORATION, priority 2016, dated 2019).

This test concerns the target wild type RET (Homo sapiens (Human), UniProt P07949). Kind of test: RET Wild Type Assay at KM (Caliper electrophoretic mobility shift). It counts as biochemical. The following applies: 25 μM ATP, 25° C., 120 minutes; read-out: Wild-type RET (RET Inhibitory Activity).

wild type RET, sequence (P07949 29-1114): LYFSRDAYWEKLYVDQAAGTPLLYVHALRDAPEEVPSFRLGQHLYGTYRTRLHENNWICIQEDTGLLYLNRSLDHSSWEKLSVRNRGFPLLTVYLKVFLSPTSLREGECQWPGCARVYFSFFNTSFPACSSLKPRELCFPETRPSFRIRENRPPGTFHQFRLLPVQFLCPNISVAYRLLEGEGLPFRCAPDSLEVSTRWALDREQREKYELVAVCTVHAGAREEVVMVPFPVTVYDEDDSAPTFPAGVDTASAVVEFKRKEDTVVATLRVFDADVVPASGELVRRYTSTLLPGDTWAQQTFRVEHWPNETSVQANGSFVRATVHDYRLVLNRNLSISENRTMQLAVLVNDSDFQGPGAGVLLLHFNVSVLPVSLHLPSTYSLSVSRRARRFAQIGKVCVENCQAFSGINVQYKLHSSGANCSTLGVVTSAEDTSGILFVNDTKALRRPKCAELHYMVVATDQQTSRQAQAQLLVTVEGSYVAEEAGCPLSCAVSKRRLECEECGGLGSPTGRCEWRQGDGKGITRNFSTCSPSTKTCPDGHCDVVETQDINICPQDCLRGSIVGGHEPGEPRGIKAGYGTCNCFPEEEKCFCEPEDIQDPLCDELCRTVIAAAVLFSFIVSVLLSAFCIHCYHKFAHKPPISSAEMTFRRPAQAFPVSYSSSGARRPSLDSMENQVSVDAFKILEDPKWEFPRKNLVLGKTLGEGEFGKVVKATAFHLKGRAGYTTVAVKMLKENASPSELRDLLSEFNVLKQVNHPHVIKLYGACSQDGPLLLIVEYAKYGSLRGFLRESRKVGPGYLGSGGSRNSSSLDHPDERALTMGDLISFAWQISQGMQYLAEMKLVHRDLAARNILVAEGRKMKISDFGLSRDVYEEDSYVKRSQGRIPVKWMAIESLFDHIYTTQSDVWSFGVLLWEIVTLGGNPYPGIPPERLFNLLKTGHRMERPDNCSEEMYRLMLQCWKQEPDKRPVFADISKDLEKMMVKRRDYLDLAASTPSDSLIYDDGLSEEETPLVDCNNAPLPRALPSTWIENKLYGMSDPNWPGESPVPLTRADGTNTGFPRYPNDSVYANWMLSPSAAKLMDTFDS

As to `CO[C@]1(C(=O)N[C@@H](C)c2cnc(-n3cc(F)cn3)cn2)C[C@H](c2cc(C)nc(Nc3cc(C)[nH]n3)n2)C1` [Compound 124], the IC50 is less than 1 nM.
The figure for `Cc1cc(Nc2cc(C)[nH]n2)nc([C@H]2C[C@](C)(C(=O)N[C@@H](C)c3cnc(-n4cc(F)cn4)cn3)C2)n1` [Compound 110] is less than 1 nM; for `Cc1cc(Nc2cc(C)[nH]n2)nc([C@H]2C[C@H](C(=O)N[C@H](C)c3cnc(-n4cc(F)cn4)cn3)C2)c1` [Compound 104] it is less than 1 nM.
As for `Cc1cc(Nc2cc(C)[nH]n2)nc([C@H]2C[C@@](C)(C(=O)N[C@@H](C)c3ccc(-n4cc(F)cn4)nc3)C2)n1` [Compound 107, (1S,3R)—N—((S)-1-(6-(4-fluoro-1H-pyrazol-1-yl)pyridin-3-yl)ethyl)-1-methyl-3-(4-methyl-6-((5-methyl-1H-pyrazol-3-yl)amino)pyrimidin-2-yl)cyclobutane-1-carboxamide], the IC50 lay in the range of 1.01 to 10 nM.
Consider `Cc1cc(Nc2cc(C)[nH]n2)nc([C@H]2C[C@H](C(=O)N[C@H](C)c3ccc(-n4cccn4)nc3)C2)c1` [Compound 101], for which the IC50 is less than 1 nM.
`Cc1cc(Nc2cc(C)[nH]n2)nc([C@]2(O)C[C@@H](C(=O)N(C)[C@@H](C)c3ccc(-n4cc(F)cn4)nc3)C2)c1` [Compound 116]: the IC50 fell in the range of 1.01 to 10 nM.
Next, `Cc1cc(Nc2cc(C)[nH]n2)nc([C@]2(O)C[C@@H](C(=O)N[C@@H](C)c3ccc(-n4cc(F)cn4)nc3)C2)c1` [Compound 109]: less than 1 nM; `CO[C@]1(C(=O)N[C@@H](C)c2ccc(-n3cc(F)cn3)nc2)C[C@](O)(c2cc(C)cc(Nc3cc(C)[nH]n3)n2)C1` [Compound 127]: less than 1 nM.
The figure for `Cc1cc(Nc2cc(C)[nH]n2)nc([C@H]2C[C@@H](C(=O)N[C@@H](C)c3ccc(-n4cc(F)cn4)nc3)C2)c1` [Compound 103] is 10 to 100 nM.
Next, `CO[C@]1(C(=O)N[C@@H](C)c2ccc(-n3cc(F)cn3)nc2)C[C@H](c2nc(C)cc(Nc3cc(C)[nH]n3)n2)C1` [Compound 121]: less than 1 nM; `Cc1cc(Nc2cc(C)[nH]n2)nc([C@H]2C[C@H](C(=O)N[C@@H](C)c3ccc(-n4cc(F)cn4)nc3)C2)c1` [Compound 102]: less than 1 nM; `CO[C@]1(C(=O)N[C@@H](C)c2ccc(-n3cc(F)cn3)nc2)C[C@H](c2cc(C)nc(Nc3cc(C)[nH]n3)n2)C1` [Compound 122]: less than 1 nM.
In the case of `CO[C@]1(C(=O)N[C@@H](C)c2cnc(-n3cc(F)cn3)cn2)C[C@H](c2nc(C)cc(Nc3cc(C)[nH]n3)n2)C1` [Compound 123], the IC50 was less than 1 nM.
Turning to `Cc1cc(Nc2cc(C)[nH]n2)nc([C@H]2C[C@H](C(=O)NCc3ccc(-n4cccn4)nc3)C2)c1` [Compound 100], the IC50 was less than 1 nM.
Next, `CO[C@]1(C(=O)NCc2cnc(-n3cc(F)cn3)cn2)C[C@H](c2cc(C)nc(Nc3cc(C)[nH]n3)n2)C1` [Compound 131]: 1.01 to 10 nM.
Regarding `CO[C@]1(C(=O)N[C@@H](C)c2ccc(-n3cc(F)cn3)nc2)C[C@H](c2cc(C)cc(Nc3cc(C)[nH]n3)n2)C1` [Compound 120], the IC50 was less than 1 nM.
For the compound `Cc1cc(Nc2cc(C)[nH]n2)nc([C@]2(O)C[C@](C)(C(=O)N[C@@H](C)c3ccc(-n4cc(F)cn4)nc3)C2)c1` [Compound 118], the IC50 is less than 100 nM.
Next, `CO[C@]1(c2cc(C)cc(Nc3cc(C)[nH]n3)n2)C[C@H](C(=O)N[C@@H](C)c2ccc(-n3cc(F)cn3)nc2)C1` [Compound 117, (1S,3R)—N—((S)-1-(6-(4-fluoro-1H-pyrazol-1-yl)pyridin-3-yl)ethyl)-3-methoxy-3-(4-methyl-6-((5-methyl-1H-pyrazol-3-yl)amino)pyridin-2-yl)cyclobutane-1-carboxamide]: less than 100 nM.
`Cc1cc(Nc2cc(C)[nH]n2)nc([C@H]2C[C@H](C(=O)N[C@@H](C)c3ccc(-n4cc(F)cn4)nc3)C2)n1` [Compound 105]: the IC50 was less than 1 nM.
`Cc1cc(Nc2cc(C)[nH]n2)nc([C@H]2C[C@](C)(C(=O)N[C@@H](C)c3ccc(-n4cc(F)cn4)nc3)C2)n1` [Compound 108, (1R,3S)—N—((S)-1-(6-(4-fluoro-1H-pyrazol-1-yl)pyridin-3-yl)ethyl)-1-methyl-3-(4-methyl-6-((5-methyl-1H-pyrazol-3-yl)amino)pyrimidin-2-yl)cyclobutane-1-carboxamide]: the IC50 is less than 1 nM.
The figure for `Cc1cc(Nc2cc(C)[nH]n2)nc([C@]2(F)C[C@](C)(C(=O)N[C@@H](C)c3ccc(-n4cc(F)cn4)nc3)C2)c1` [Compound 126] is less than 100 nM.
The figure for `Cc1cc(Nc2cc(C)[nH]n2)nc([C@]2(F)C[C@@H](C(=O)N[C@@H](C)c3ccc(-n4cc(F)cn4)nc3)C2)c1` [Compound 114] is 1.01 to 10 nM; for `Cc1cc(Nc2cc(C)[nH]n2)nc([C@]2(F)C[C@H](C(=O)N[C@@H](C)c3ccc(-n4cc(F)cn4)nc3)C2)c1` [Compound 113, (1S,3R)-3-fluoro-N—((S)-1-(6-(4-fluoro-1H-pyrazol-1-yl)pyridin-3-yl)ethyl)-3-(4-methyl-6-(5-methyl-1H-pyrazol-3-ylamino)pyridin-2-yl)cyclobutanecarboxamide] it is 10 to 100 nM.
With `CO[C@]1(C(=O)N[C@@H](C)c2ccc(-n3cc(F)cn3)nc2)C[C@@](O)(c2cc(C)cc(Nc3cc(C)[nH]n3)n2)C1` [Compound 128], the IC50 is less than 100 nM.
The figure for `Cc1cc(Nc2cc(C)[nH]n2)nc([C@]2(O)C[C@@](C)(C(=O)N[C@@H](C)c3ccc(-n4cc(F)cn4)nc3)C2)c1` [Compound 119] is less than 1 nM.
